Tests used:
GLUT3 = biological target: T1, GLUT3 (Homo sapiens, UniProt P11169); assay: [3H]2-DG uptake into LNCaP cells overexpressing GLUT3; format: cell-based; conditions: for inhibition at 5 µM: LNCaP cells transfected with GLUT3, 30 min
T1 construct: GLUT3 ORF cDNA was purchased from Origene Technologies; EGFP (from the pEGFP-N2 vector); host or cells: LNCaP
T1 sequence (P11169 1-496): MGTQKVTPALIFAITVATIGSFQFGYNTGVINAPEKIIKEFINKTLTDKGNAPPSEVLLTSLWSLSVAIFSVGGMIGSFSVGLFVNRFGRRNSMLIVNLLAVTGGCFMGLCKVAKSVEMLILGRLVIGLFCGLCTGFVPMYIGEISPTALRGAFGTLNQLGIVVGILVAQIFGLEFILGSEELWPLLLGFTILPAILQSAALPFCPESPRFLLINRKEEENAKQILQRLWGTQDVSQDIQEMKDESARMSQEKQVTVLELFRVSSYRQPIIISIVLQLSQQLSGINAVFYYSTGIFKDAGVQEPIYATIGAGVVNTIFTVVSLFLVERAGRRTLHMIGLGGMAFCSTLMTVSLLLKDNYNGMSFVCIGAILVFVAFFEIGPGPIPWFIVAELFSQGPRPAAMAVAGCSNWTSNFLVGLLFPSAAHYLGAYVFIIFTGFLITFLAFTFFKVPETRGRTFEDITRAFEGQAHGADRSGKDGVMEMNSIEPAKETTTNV
From the text: (§1) As information regarding the expression pattern of individual GLUT members in LNCaP cells was lacking, quantitative real time polymerase chain reaction (qRT-PCR) was used to assess the mRNA levels of the hypoxia-responsive GLUT1 and GLUT3, and three other representative GLUT members, including the class I GLUT2 and GLUT4 and the class II GLUT9. Among these five members, LNCaP cells expressed GLUT1 and, to a much lesser extent, GLUT9, while the mRNA levels of GLUTs2-4 were negligible (FIG. 3B). To examine the isoform specificity of these inhibitors, LNCaP cells were ectopically transfected with plasmids encoding GLUT1, GLUT3, GLUT4, or GLUT9 vis-à-vis the pCMV control vector so that the increased glucose uptake in GLUT-transfected cells relative to pCMV control cells was indicative of the activity of the ectopically expressed GLUT protein.
(§2) Glucose Uptake Assay. LNCaP cells were seeded in six-well plates (3×10^5 cells/well) for 24 h. Cells were washed twice with Krebs-Ringer phosphate buffer (126 mM NaCl, 2.5 mM KCl, 25 mM NaHCO3, 1.2 mM NaH2PO4, 1.2 mM MgCl2, 2.5 mM CaCl2, pH 7.4) and were then treated with individual agents in Krebs-Ringer phosphate buffer. After 1.5 h, glucose uptake was initiated by adding 1 mL Krebs-Ringer buffer containing […] [^3H]2-DG (PerkinElmer Life Science) and […] non-radioactive 2-DG and was terminated by washing with cold PBS. The cells were lysed in […] lysis buffer (10 mM Tris-HCl pH 8.0, 0.1% SDS) and aliquots were taken for measurement of radioactivity using a scintillation counter (Beckman LS6500).
(§3) Plasmid Construction, Transient Transfection and Immunoblotting. The full length GLUT1, GLUT4, and GLUT9 ORF cDNA clones were purchased from Addgene (Cambridge, Mass.) and GLUT3 ORF cDNA was purchased from Origene Technologies (Rockville, Md.). GLUT1, GLUT3, and GLUT9 were subcloned into the HindIII/SalI sites and GLUT4 was subcloned into the EcoRI/SalI sites of pEGFP-N2 expression vector (Clontech, Palo Alto, Calif.). […]

GLUT4 = biological target: T2, GLUT4 (Homo sapiens, UniProt P14672); assay: [3H]2-DG uptake into LNCaP cells overexpressing GLUT4; format: cell-based; conditions: for inhibition at 5 µM: LNCaP cells transfected with GLUT4, 30 min
T2 construct: The full length GLUT1, GLUT4, and GLUT9 ORF cDNA clones were purchased from Addgene; host or cells: LNCaP
T2 sequence (P14672 1-509): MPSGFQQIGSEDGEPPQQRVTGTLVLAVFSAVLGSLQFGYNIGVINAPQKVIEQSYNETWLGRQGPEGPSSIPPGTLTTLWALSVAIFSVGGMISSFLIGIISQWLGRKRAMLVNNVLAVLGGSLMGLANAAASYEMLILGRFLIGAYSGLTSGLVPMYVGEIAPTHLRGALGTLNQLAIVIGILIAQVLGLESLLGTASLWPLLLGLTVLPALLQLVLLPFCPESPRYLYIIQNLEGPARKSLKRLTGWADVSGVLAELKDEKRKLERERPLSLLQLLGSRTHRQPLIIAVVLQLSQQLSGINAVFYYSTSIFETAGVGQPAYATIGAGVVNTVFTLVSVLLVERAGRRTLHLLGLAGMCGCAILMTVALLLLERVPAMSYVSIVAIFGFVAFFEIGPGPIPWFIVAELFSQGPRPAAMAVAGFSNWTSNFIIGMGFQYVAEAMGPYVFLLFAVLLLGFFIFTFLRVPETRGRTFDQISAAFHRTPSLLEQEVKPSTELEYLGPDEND
From the text: as §1, §2, §3

LNCaP cells = assay: MTT cell viability assay, LNCaP; format: cell-based, human; conditions: for IC50: 72 h, MTT, 10% FBS
Protocol: Cell Viability Assay. Cell viability was determined using the 3-(4,5-dimethylthiazol-2-yl)-2,5-diphenyltetrazolium bromide (MTT) assay. Cancer cells were seeded at 5000 cells/well and normal cells were seeded at 8000 cells/well in 96-well plates and incubated in 10% FBS-supplemented medium for 24 h. Cells were then treated with individual agents for 72 h. Drug-containing medium was replaced with medium containing MTT (0.5 mg/mL), followed by incubation at 37° C. for 1 h. After removal of medium, the reduced MTT dye in each well was solubilized in 100 μL of DMSO and absorbance at 570 nm was measured.
Compound 30 was evaluated for antiproliferative activity in panels of different human cancer cells lines, including those of prostate, breast and pancreatic cancers. In all experiments, cells were treated with a range of concentrations of Compound 30 in the presence of 10% fetal bovine serum (FBS). Cell viability was then determined after 72 h of treatment using the 3-(4,5-dimethylthiazol-2-yl)-2,5-diphenyltetrazolium bromide (MTT) assay. […] It is noteworthy that despite this high antiproliferative potency, normal human prostate epithelial cells (PrECs) were resistant to the cytotoxic effect of Compound 30 even at 10 μM.

Row | inhibition at 5 µM (GLUT3) [%] | inhibition at 5 µM (GLUT4) [%] | IC50 (LNCaP cells; Homo sapiens, LNCaP) [nM] | IC50 (GLUT3; LNCaP cells overexpressing GLUT3, read-out: IC50 for GLUT3-mediated [3H]2-DG uptake) [nM] | IC50 (GLUT4; LNCaP cells overexpressing GLUT4, read-out: IC50 for GLUT4-mediated [3H]2-DG uptake) [nM] | IC50 (LNCaP cells) [nM] | improvement over compound 1 (IC50, [3H]-2DG uptake and viability of LNCaP cells) (LNCaP cells; relative to compound 1) [fold] | SMILES
1 | 41 | 32 | 4200 |  |  |  |  | CCC(CC)CN1C(=O)S/C(=C\c2ccc(O)c(C(F)(F)F)c2)C1=O [Compound 5]
2 | 48 | 42 | 1500 | ≥ 5000 | ≥ 5000 | 1500 to 1700 | 40 | CC(CN1C(=O)S/C(=C\c2ccc(O)c(C(F)(F)F)c2)C1=O)(CC(F)(F)F)CC(F)(F)F [Compound 30, 5-(4-Hydroxy-3-trifluoromethyl-benzylidene)-3-[4,4,4-trifluoro-2-methyl-2-(2,2,2-trifluoro-ethyl)-butyl]-thiazolidine-2,4-dione]

From US9174951B2, “Glucose transporter inhibitors” (The Ohio State University Research Foundation, priority 2012, dated 2015)
